According to the supplement of paper PMC10307832:

Assays:
Experiment in all cases: relative viability (nuclei count vs DMSO), 5 days (fraction); higher = more cells survive
[1] = compound: C1=CC2=C(C=C(C(=C2N=C1)O)N=NC3=CC4=C(C=C3)C=C(C=C4)S(=O)(=O)O)S(=O)(=O)O + Cc1nc(NC(=O)N2CCC[C@H]2C(N)=O)sc1-c1ccnc(C(C)(C)C(F)(F)F)c1 [Alpelisib] (partner 2 µM)
In short: (§1)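 Each reported value is a median over duplicate plates. It expresses relative viability: treated-well nuclei count divided by vehicle-well nuclei count. Lung cancer cell lines in 1536-well plates were dosed by pin tool a day after seeding, alone with one drug or with a fixed anchor-drug dose plus five library-drug doses (not always all listed) in √10 steps, and nuclei were counted after 5 days.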

AT-7519 + Linsitinib = compound: O=C(NC1CCNCC1)c1n[nH]cc1NC(=O)c1c(Cl)cccc1Cl [AT-7519] + C[C@]1(O)C[C@@H](c2nc(-c3ccc4ccc(-c5ccccc5)nc4c3)c3c(N)nccn32)C1 [Linsitinib] (partner 1 µM)
In short: as §1

AT-7519 + Bortezomib = compound: O=C(NC1CCNCC1)c1n[nH]cc1NC(=O)c1c(Cl)cccc1Cl [AT-7519] + CC(C)C[C@H](NC(=O)[C@H](Cc1ccccc1)NC(=O)c1cnccn1)B(O)O [Bortezomib] (partner 0.002 µM)
In short: as §1

[2] = compound: C1=CC2=C(C=C(C(=C2N=C1)O)N=NC3=CC4=C(C=C3)C=C(C=C4)S(=O)(=O)O)S(=O)(=O)O + O=C(c1cc(Cc2n[nH]c(=O)c3ccccc23)ccc1F)N1CCN(C(=O)C2CC2)CC1 [Olaparib] (partner 8 µM)
In short: as §1

Row | Cell Line | relative viability ([1]; first compound 0.08 µM) | relative viability ([1]; first compound 0.253 µM) | relative viability ([1]; first compound 0.8 µM) | relative viability ([1]; first compound 2.53 µM) | relative viability ([1]; first compound 8 µM) | relative viability (AT-7519 + Linsitinib; first compound 0.01 µM) | relative viability (AT-7519 + Linsitinib; first compound 0.03162 µM) | relative viability (AT-7519 + Linsitinib; first compound 0.3162 µM) | relative viability (AT-7519 + Linsitinib; first compound 1 µM) | relative viability (AT-7519 + Bortezomib; first compound 0.01 µM) | relative viability (AT-7519 + Bortezomib; first compound 0.03162 µM) | relative viability (AT-7519 + Bortezomib; first compound 0.3162 µM) | relative viability (AT-7519 + Bortezomib; first compound 1 µM) | relative viability ([2]; first compound 0.08 µM) | relative viability ([2]; first compound 0.253 µM) | relative viability ([2]; first compound 0.8 µM) | relative viability ([2]; first compound 2.53 µM) | relative viability ([2]; first compound 8 µM)
1 | NCI-H1755 | 1.02 | 0.874 | 0.933 | 0.949 | 0.956 | 1 | 0.993 | 1.03 | 0.967 | 0.927 | 1.09 | 0.976 | 0.969 | 0.913 | 0.864 | 0.831 | 0.964 | 0.874
2 | NCI-H2023 | 0.606 | 0.671 | 0.636 | 0.564 | 0.624 | 0.731 | 0.699 | 0.626 | 0.329 | 1.12 | 0.985 | 0.855 | 0.503 | 0.509 | 0.443 | 0.442 | 0.528 | 0.416
3 | NCI-H2009 | 1.19 | 1.05 | 1.1 | 1.16 | 1.1 | 1.24 | 1.24 | 1.15 | 0.676 | 1.08 | 0.908 | 0.96 | 0.704 | 0.656 | 0.663 | 0.681 | 0.743 | 0.711
